Marks after values point to notes of the source that are not given here.
Key:
Septoria nodorum = assay: Test H: wheat glum blotch, preventive spray on wheat seedlings; settings: 100 = 100% disease control; for Test H disease control rating: 40 ppm (marked *)
Procedure: (the causal agent of wheat glum blotch) and incubated in a saturated atmosphere at 20° C. for 48 h, and then moved to a growth chamber at 22° C. for 5 days, after which disease ratings were made.

Rhizoctonia oryzae = assay: Test G: turf brown patch, preventive spray on creeping bent grass seedlings; settings: 100 = 100% disease control
Procedure: (the causal agent of turf brown patch) and incubated in a saturated atmosphere at 27° C. for 24 h, and then moved to a growth chamber at 27° C. for 5 days, after which disease ratings were made.

Pythium aphanidermatum = assay: Test A: bluegrass pythium blight, preventive spray on bluegrass seedlings; settings: for Test A disease control rating: 100 = 100% disease control; for pest or weed control at 200 ppm: Pythium aphanidermatum, 120 h, read-out: Test A disease control rating
[1] = system: Colletotrichum orbiculare; assay: Test B: cucumber Colletotrichum anthracnose, preventive spray on cucumber seedlings; settings: 100 = 100% disease control; for Test B disease control rating: 40 ppm (marked *)
[2] = system: Erysiphe graminis f. sp. tritici; assay: Test L: wheat powdery mildew, preventive spray on wheat seedlings; settings: 100 = 100% disease control; for Test L disease control rating: 40 ppm (marked *)
fusarium graminearium = assay: Test I: wheat head scab, preventive spray on wheat seedlings; settings: 100 = 100% disease control; for pest or weed control at 200 ppm: Fusarium, in Triticum aestivum, topical, 192 h, read-out: Test I disease control rating, 200 ppm
Procedure: (the causal agent of wheat head scab) and incubated in a saturated atmosphere at 20° C. for 72 h, and then moved to a growth chamber at 22° C. for 5 days, after which disease ratings were made.

Septoria tritici = assay: Test J: wheat leaf blotch, preventive spray on wheat seedlings; type: in vivo; settings: 40 ppm (marked *), 100 = 100% disease control, 0 = no control; for pest or weed control at 40 ppm: Zymoseptoria tritici, 528 h, read-out: Test J disease control rating
Excerpt: A dash (-) indicates no test results.

Plasmopara viticola = assay: Test D: grape downy mildew, spray after inoculation of grape seedlings; type: in vivo; settings: 100 = 100% disease control; for pest or weed control at 200 ppm: Plasmopara viticola, 168 h, read-out: Test D disease control rating
Excerpt: Upon removal, disease ratings were made. […] A dash (-) indicates no test results.

Phytophthora infestans = assay: whole plant or invertebrate; type: in vivo; settings: for Test F disease control rating: 100 = 100% disease control; for pest or weed control at 200 ppm: Phytophthora infestans, in Solanum lycopersicum, topical, 144 h, read-out: Test F disease control rating
Botrytis cinerea = assay: Test E: tomato botrytis, preventive spray on tomato seedlings; settings: for Test E disease control rating: 40 ppm (marked *), 100 = 100% disease control, 0 = no control
[3] = 40 ppm (marked *), 0 = no control
[4] = 200 ppm, 0 = no control relative to controls
[5] = 0 = no control relative to controls
[6] = Botrytis cinerea, in Solanum lycopersicum, topical, 72 h, read-out: Test E disease control rating

Structure (SMILES) | Test H disease control rating (Septoria nodorum; 0 = no control) | Test G disease control rating (Rhizoctonia oryzae; [3]) | Test B disease control rating ([1]; 0 = no control) | Test L disease control rating ([2]; 0 = no control) | Test J disease control rating (Septoria tritici) | Test E disease control rating (Botrytis cinerea) | Test I disease control rating (fusarium graminearium; [3]) | Test D disease control rating (Plasmopara viticola; [3]) | Test F disease control rating (Phytophthora infestans; [3]) | also measured
CCC(C)Cn1c(-c2c(F)cc(F)cc2F)c(Cl)nc(C(N)=O)c1=O (stereo not drawn) [compound 415] | 100* % | 0* % | 91* % | 99* % | 95* % | 99* % | – | – | – | Test A disease control rating (Pythium aphanidermatum; [4]): 86%; Test I disease control rating (fusarium graminearium; [4]): 0%; Test D disease control rating (Plasmopara viticola; [4]): 95%; Test F disease control rating (Phytophthora infestans; [4]): 99%
Nn1c(-c2c(F)cccc2F)c(Cl)nc(-n2cccn2)c1=O [Compound 400, 1-Amino-5-chloro-6-(2,6-difluorophenyl)-3-(1H-pyrazol-1-)-2(1H)-pyrazinone] | 0* % | 0* % | 0* % | – | 0* % | 0* % | 0* % | 0* % | 0* % | Test A disease control rating (Pythium aphanidermatum; [3]): 0* %
Cc1ccn(-c2nc(Cl)c(-c3c(F)cccc3F)n(-c3ccc(F)c(F)c3)c2=O)n1 [compound 389] | 94* % | 31* % | 98* % | 0* % | 100* % | 99* % | 0* % | 0* % | 0* % | Test A disease control rating (Pythium aphanidermatum; [3]): 0* %
O=c1c(-n2cccn2)nc(Cl)c(-c2c(F)cccc2F)n1-c1ccc(F)c(F)c1 [compound 388] | 97* % | 0* % | 67* % | 0* % | 100* % | 99* % | 0* % | 0* % | 0* % | Test A disease control rating (Pythium aphanidermatum; [3]): 0* %
CCC(C)Cn1c(-c2ccc(F)cc2F)c(C)nc(C#N)c1=NC(C)=O (stereo not drawn) [Compound 430, N-[3-Cyano-6-(2,4-difluorophenyl)-5-methyl-1-(2-methylbutyl)-2(1H)-pyrazinylidene]acetamide] | – | – | – | – | – | – | – | – | – | pest or weed control at 200 ppm (Septoria nodorum; Parastagonospora nodorum, in Triticum aestivum, topical, 168 h, read-out: Test H disease control rating, 200 ppm, 0 = no control relative to controls): 0%; pest or weed control at 200 ppm (Rhizoctonia oryzae; Waitea circinata, in Agrostis stolonifera, topical, 144 h, read-out: Test G disease control rating, 200 ppm, 0 = no control relative to controls): 0%; pest or weed control at 200 ppm (Pythium aphanidermatum): 0%; pest or weed control at 200 ppm ([1]; Colletotrichum orbiculare, in Cucumis sativus, 144 h, read-out: Test B disease control rating, 200 ppm, 0 = no control relative to controls): 0%; pest or weed control at 200 ppm ([2]; Blumeria graminis, in Triticum aestivum, 168 h, read-out: Test L disease control rating, 200 ppm, 0 = no control relative to controls): 93%; pest or weed control at 200 ppm (fusarium graminearium; [5]): 0%; pest or weed control at 40 ppm (Septoria tritici): 86%; pest or weed control at 200 ppm (Plasmopara viticola; [4]): 0%; pest or weed control at 200 ppm (Phytophthora infestans): 0%; pest or weed control at 200 ppm (Botrytis cinerea; [6]): 96%
O=c1c(-n2cccn2)nc(Cl)c(-c2c(F)cc(F)cc2F)n1-c1ccc(F)cc1 [compound 408] | 100* % | 91* % | 98* % | 99* % | 99* % | 99* % | 0* % | 0* % | 0* % | –
CCCn1c(-c2c(F)cc(F)cc2F)c(Cl)nc(C(N)=O)c1=O [compound 413] | 99* % | 0* % | 0* % | 98* % | 93* % | 99* % | – | – | – | Test A disease control rating (Pythium aphanidermatum; [4]): 68%; Test I disease control rating (fusarium graminearium; [4]): 0%; Test D disease control rating (Plasmopara viticola; [4]): 64%; Test F disease control rating (Phytophthora infestans; [4]): 95%
O=c1c(-n2cccn2)nc(Cl)c(-c2c(F)cc(F)cc2F)n1-c1ccc(Cl)c(Cl)c1 [compound 402] | 100* % | 0* % | 98* % | 57* % | 99* % | 99* % | 0* % | 0* % | 0* % | –
Cc1ccn(-c2nc(Cl)c(-c3c(F)cc(F)cc3F)n(-c3cc(Cl)cc(Cl)c3)c2=O)n1 [compound 405] | 98* % | 17* % | 36* % | 0* % | 99* % | 99* % | 0* % | 0* % | 0* % | –
Cc1ccn(-c2nc(Cl)c(-c3c(F)cc(F)cc3F)n(-c3ccc(F)c(Cl)c3)c2=O)n1 [compound 407] | 99* % | 9* % | 32* % | 0* % | 99* % | 99* % | 0* % | 0* % | 0* % | –
Cc1ccn(-c2nc(Cl)c(-c3c(F)cc(F)cc3F)n(-c3ccc(Cl)c(Cl)c3)c2=O)n1 [compound 403] | 100* % | – | 99* % | 99* % | 98* % | 99* % | 0* % | 0* % | 0* % | Test G disease control rating (Rhizoctonia oryzae; [4]): 0%
NC(=O)c1nc(Cl)c(-c2c(F)cc(F)cc2F)n(-c2cccc(F)c2)c1=O [Compound 414, 6-Chloro-4-(3-fluorophenyl)-3,4-dihydro-3-oxo-5-(2,4,6-trifluorophenyl)pyrazinecarboxamide] | – | – | – | – | – | – | – | – | – | pest or weed control at 40 ppm (Septoria nodorum; Parastagonospora nodorum, in Triticum aestivum, topical, 168 h, read-out: Test H disease control rating, 40 ppm (marked *), 0 = no control): 0%; pest or weed control at 40 ppm (Rhizoctonia oryzae; Waitea circinata, in Agrostis stolonifera, topical, 144 h, read-out: Test G disease control rating, 40 ppm (marked *), 0 = no control): 0%; pest or weed control at 200 ppm (Pythium aphanidermatum): 95%; pest or weed control at 40 ppm ([1]; Colletotrichum orbiculare, in Cucumis sativus, 144 h, read-out: Test B disease control rating, 40 ppm (marked *), 0 = no control): 0%; pest or weed control at 40 ppm ([2]; Blumeria graminis, in Triticum aestivum, 168 h, read-out: Test L disease control rating, 40 ppm (marked *), 0 = no control): 98%; pest or weed control at 200 ppm (fusarium graminearium; [5]): 35%; pest or weed control at 40 ppm (Septoria tritici): 97%; pest or weed control at 200 ppm (Plasmopara viticola; [4]): 40%; pest or weed control at 200 ppm (Phytophthora infestans): 85%; pest or weed control at 40 ppm (Botrytis cinerea; [6]): 99%

From patent US20080194585A1, “Fungicidal Pyrazine Derivatives” (priority 2005, published 2008)
